# Experimental data published in ChEMBL document CHEMBL4229492, “Design, Synthesis, and Biological Evaluation of Novel 7-[(3 aS,7 aS)-3 a-Aminohexahydropyrano[3,4- c]pyrrol-2(3 H)-yl]-8-methoxyquinolines with Potent Antibacterial Activity against Respiratory Pathogens” (J Med Chem, 2018).
# Tests used:
# [1] = test system: Mus musculus; experiment: Toxicity in Slc:ddY mouse assessed as induction of mortality at 15 ug/5 uL/mouse administered intracisternally 30 mins after 400 mg/kg, po BPAA dosing and measured over 30 mins post dose; format: organism-based; details: in vivo, 0.5 h
# [2] = test system: Staphylococcus aureus; experiment: Antibacterial activity against Staphylococcus aureus SMITH after 18 hrs by two-fold microbroth dilution method; format: functional
# [3] = test system: Streptococcus pyogenes; experiment: Antibacterial activity against Streptococcus pyogenes ATCC 12344 after 18 hrs by two-fold microbroth dilution method; format: functional; details: ATCC 12344, 18 h
# [4] = test system: Mus musculus; experiment: Toxicity in Slc:ddY mouse assessed as induction of mortality at 5 ug/5 uL/mouse administered intracisternally 30 mins after 400 mg/kg, po BPAA dosing and measured over 30 mins post dose; format: organism-based; details: in vivo, 0.5 h
# [5] = test system: Moraxella catarrhalis; experiment: Antibacterial activity against Moraxella catarrhalis ATCC 25238 after 18 hrs by two-fold microbroth dilution method; format: functional; details: ATCC 25238, 18 h
# [6] = test system: Streptococcus pneumoniae; experiment: Antibacterial activity against penicillin-resistant Streptococcus pneumoniae 033806 after 18 hrs by two-fold microbroth dilution method; format: functional; details: Streptococcus pneumoniae, 033806, 18 h
# [7] = test system: Bacillus spizizenii; experiment: Antibacterial activity against Bacillus subtilis ATCC 6633 after 18 hrs by two-fold microbroth dilution method; format: functional; details: ATCC 6633, 18 h
# [8] = molecular target: T1, hERG (KCNH2) (Homo sapiens, UniProt Q12809); experiment: Inhibition of human ERG expressed in CHOK1 cells at 30 uM; format: cell-based; details: CHOK1 cells that express human ERG
# [9] = test system: Mus musculus; experiment: Toxicity in Slc:ddY mouse assessed as induction of convulsion at 15 ug/5 uL/mouse administered intracisternally 30 mins after 400 mg/kg, po BPAA dosing and measured over 30 mins post dose; format: organism-based; details: in vivo, 0.5 h
# [10] = molecular target: CYP3A4 (Homo sapiens, UniProt P08684); experiment: Inhibition of CYP3A4 in human liver microsomes at 10 uM assessed as remaining activity by measuring 1'-hydroxylation of midazolam after 30 mins; format: ADME; details: probe midazolam (1'-hydroxylation), read-out: Activity
# [11] = test system: Mus musculus; experiment: Toxicity in Slc:ddY mouse assessed as induction of mortality at 15 ug/5 uL/mouse administered intracisternally and measured over 30 mins post dose; format: organism-based; details: in vivo, other, 0.5 h
# [12] = molecular target: T1, hERG (KCNH2); experiment: Inhibition of human ERG expressed in CHOK1 cells at 100 uM; format: cell-based; details: CHOK1 cells that express human ERG
# [13] = test system: Mus musculus; experiment: Toxicity in Slc:ddY mouse assessed as induction of mortality at 5 ug/5 uL/mouse administered intracisternally and measured over 30 mins post dose; format: organism-based; details: in vivo, other, 0.5 h
# [14] = test system: Mus musculus; experiment: Toxicity in Slc:ddY mouse assessed as induction of convulsion at 5 ug/5 uL/mouse administered intracisternally 30 mins after 400 mg/kg, po BPAA dosing and measured over 30 mins post dose; format: organism-based; details: in vivo, 0.5 h
# [15] = test system: Klebsiella pneumoniae; experiment: Antibacterial activity against Klebsiella pneumoniae TYPE 1 after 18 hrs by two-fold microbroth dilution method; format: functional; details: TYPE 1, 18 h
# [16] = test system: Escherichia coli; experiment: Antibacterial activity against Escherichia coli 5-037042'98 harboring gyrase A Asp87Gly mutation after 18 hrs by two-fold microbroth dilution method; format: functional; details: 5-037042'98, 18 h
# [17] = Primary phase half life in cynomolgus monkey serum at 5 mg/kg, iv; format: ADME, organism-based, Macaca fascicularis; details: read-out: alphat1/2 (converted)
# [18] = test system: Staphylococcus aureus; experiment: Antibacterial activity against methicillin-resistant Staphylococcus aureus after 18 hrs by two-fold microbroth dilution method; format: functional
# [19] = test system: Pseudomonas aeruginosa; experiment: Antibacterial activity against Pseudomonas aeruginosa PAO1 after 18 hrs by two-fold microbroth dilution method; format: functional; details: PAO1, 18 h
# [20] = AUC (0 to 8 hrs) in cynomolgus monkey serum at 5 mg/kg, iv; format: ADME, organism-based, Macaca fascicularis; parameters: dose 5 mg/kg, time < 8 hr, route intravenous
# [21] = test system: Escherichia coli; experiment: Antibacterial activity against quinolone-resistant Escherichia coli DNS5101 after 18 hrs by two-fold microbroth dilution method; format: functional; details: DNS5101, 18 h
# [22] = test system: Escherichia coli; experiment: Antibacterial activity against Escherichia coli NIHJ after 18 hrs by two-fold microbroth dilution method; format: functional
# [23] = test system: Mus musculus; experiment: Toxicity in Slc:ddY mouse assessed as induction of convulsion at 15 ug/5 uL/mouse administered intracisternally and measured over 30 mins post dose; format: organism-based; details: in vivo, other, 0.5 h
# [24] = Drug recovery in cynomolgus monkey urine at 5 mg/kg, iv after 24 hrs; format: ADME, organism-based, Macaca fascicularis; details: read-out: Drug recovery
# [25] = test system: Staphylococcus aureus; experiment: Antibacterial activity against levofloxacin and methicillin-resistant Staphylococcus aureus 890325-1 after 18 hrs by two-fold microbroth dilution method; format: functional; details: 890325-1, 18 h
# [26] = test system: Mus musculus; experiment: Toxicity in Slc:ddY mouse assessed as induction of convulsion at 5 ug/5 uL/mouse administered intracisternally and measured over 30 mins post dose; format: organism-based; details: in vivo, other, 0.5 h
# [27] = test system: Mus musculus; experiment: Toxicity in Slc:ddY mouse assessed as induction of mortality at 50 ug/5 uL/mouse administered intracisternally and measured over 30 mins post dose; format: organism-based; details: in vivo, other, 0.5 h
# [28] = test system: Mus musculus; experiment: Toxicity in Slc:ddY mouse assessed as induction of mortality at 50 ug/5 uL/mouse administered intracisternally 30 mins after 400 mg/kg, po BPAA dosing and measured over 30 mins post dose; format: organism-based; details: in vivo, 0.5 h
# [29] = test system: Staphylococcus aureus; experiment: Antibacterial activity against levofloxacin and methicillin-resistant Staphylococcus aureus 870307 after 18 hrs by two-fold microbroth dilution method; format: functional; details: Staphylococcus aureus, 870307, 18 h
# [30] = test system: Enterococcus faecalis; experiment: Antibacterial activity against Enterococcus faecalis ATCC 19433 after 18 hrs by two-fold microbroth dilution method; format: functional; details: ATCC 19433, 18 h
# [31] = Cmin in cynomolgus monkey serum at 5 mg/kg, iv after 5 mins; format: ADME, organism-based, Macaca fascicularis; details: read-out: Cmin
# [32] = test system: Haemophilus influenzae; experiment: Antibacterial activity against Haemophilus influenzae ATCC 49247 after 18 hrs by two-fold microbroth dilution method; format: functional; details: ATCC 49247, 18 h
# [33] = AUC (0 to 8 hrs) in Crj:CD rat at 5 mg/kg, po; format: ADME, organism-based; parameters: time < 8 hr, dose 5 mg/kg, route oral; details: in vivo
# [34] = test system: Streptococcus pneumoniae; experiment: Antibacterial activity against penicillin-susceptible Streptococcus pneumoniae J41 after 18 hrs by two-fold microbroth dilution method; format: functional; details: J41, 18 h
# [35] = molecular target: Albumin (Homo sapiens, UniProt P02768); experiment: Binding affinity to human serum albumin after 60 mins at 37 degC by ultrafiltration-based LC-MS analysis; format: ADME; details: read-out: PB (converted)
# [36] = test system: Streptococcus pneumoniae; experiment: Antibacterial activity against penicillin-susceptible Streptococcus pneumoniae J24 after 18 hrs by two-fold microbroth dilution method; format: functional; details: J24, 18 h
# [37] = Metabolic stability in human microsomes at 1 uM assessed as compound remaining after 30 mins; format: ADME, Microsome; details: read-out: Stability
# [38] = Cmax in Crj:CD rat at 5 mg/kg, po; format: ADME, organism-based; parameters: dose 5 mg/kg, route oral; details: in vivo
# T1 sequence (Q12809 whole entry): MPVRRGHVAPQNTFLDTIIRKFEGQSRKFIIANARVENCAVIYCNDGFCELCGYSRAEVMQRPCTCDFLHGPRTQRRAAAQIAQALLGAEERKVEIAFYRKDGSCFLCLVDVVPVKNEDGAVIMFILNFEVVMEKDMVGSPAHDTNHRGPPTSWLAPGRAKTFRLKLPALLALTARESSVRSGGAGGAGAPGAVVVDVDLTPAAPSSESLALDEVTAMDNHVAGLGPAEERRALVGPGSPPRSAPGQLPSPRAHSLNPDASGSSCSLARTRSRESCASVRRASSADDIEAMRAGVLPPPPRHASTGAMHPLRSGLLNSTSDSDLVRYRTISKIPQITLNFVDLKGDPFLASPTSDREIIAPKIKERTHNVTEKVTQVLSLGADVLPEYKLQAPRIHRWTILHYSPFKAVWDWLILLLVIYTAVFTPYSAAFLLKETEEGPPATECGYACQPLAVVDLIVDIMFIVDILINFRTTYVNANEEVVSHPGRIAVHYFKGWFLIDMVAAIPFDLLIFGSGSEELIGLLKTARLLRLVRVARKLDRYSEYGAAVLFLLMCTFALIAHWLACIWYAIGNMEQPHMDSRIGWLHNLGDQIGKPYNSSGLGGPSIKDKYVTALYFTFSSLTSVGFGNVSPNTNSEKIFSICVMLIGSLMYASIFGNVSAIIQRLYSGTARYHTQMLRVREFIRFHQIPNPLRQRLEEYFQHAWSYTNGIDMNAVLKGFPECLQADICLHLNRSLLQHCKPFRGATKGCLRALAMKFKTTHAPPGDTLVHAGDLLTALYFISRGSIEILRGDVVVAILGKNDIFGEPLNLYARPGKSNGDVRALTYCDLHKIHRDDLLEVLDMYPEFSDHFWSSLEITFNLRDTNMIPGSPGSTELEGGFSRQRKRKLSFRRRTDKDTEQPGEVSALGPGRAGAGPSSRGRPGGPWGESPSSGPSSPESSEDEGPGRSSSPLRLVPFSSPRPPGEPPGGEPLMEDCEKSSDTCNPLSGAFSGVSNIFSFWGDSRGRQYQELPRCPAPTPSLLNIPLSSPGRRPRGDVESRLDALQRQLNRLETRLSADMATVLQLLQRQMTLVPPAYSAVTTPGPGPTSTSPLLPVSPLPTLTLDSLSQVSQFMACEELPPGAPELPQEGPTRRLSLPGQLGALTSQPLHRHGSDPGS
# Chain of Albumin (P02768 whole entry): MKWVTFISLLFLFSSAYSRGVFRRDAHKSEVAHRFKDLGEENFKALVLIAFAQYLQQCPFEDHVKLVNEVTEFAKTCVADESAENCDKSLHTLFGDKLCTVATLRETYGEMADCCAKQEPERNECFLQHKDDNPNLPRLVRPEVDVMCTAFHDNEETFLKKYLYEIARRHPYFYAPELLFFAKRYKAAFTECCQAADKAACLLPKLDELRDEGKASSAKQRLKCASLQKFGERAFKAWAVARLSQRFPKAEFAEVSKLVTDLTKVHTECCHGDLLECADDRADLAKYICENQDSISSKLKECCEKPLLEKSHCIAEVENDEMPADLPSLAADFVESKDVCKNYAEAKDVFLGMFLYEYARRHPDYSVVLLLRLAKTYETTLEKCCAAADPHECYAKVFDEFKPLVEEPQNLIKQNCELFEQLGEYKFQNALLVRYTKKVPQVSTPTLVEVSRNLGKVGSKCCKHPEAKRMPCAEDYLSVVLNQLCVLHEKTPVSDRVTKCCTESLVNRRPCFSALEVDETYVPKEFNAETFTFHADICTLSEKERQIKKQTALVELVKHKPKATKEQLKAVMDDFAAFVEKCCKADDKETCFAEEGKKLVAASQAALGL
# Chain of CYP3A4 (P08684 whole entry): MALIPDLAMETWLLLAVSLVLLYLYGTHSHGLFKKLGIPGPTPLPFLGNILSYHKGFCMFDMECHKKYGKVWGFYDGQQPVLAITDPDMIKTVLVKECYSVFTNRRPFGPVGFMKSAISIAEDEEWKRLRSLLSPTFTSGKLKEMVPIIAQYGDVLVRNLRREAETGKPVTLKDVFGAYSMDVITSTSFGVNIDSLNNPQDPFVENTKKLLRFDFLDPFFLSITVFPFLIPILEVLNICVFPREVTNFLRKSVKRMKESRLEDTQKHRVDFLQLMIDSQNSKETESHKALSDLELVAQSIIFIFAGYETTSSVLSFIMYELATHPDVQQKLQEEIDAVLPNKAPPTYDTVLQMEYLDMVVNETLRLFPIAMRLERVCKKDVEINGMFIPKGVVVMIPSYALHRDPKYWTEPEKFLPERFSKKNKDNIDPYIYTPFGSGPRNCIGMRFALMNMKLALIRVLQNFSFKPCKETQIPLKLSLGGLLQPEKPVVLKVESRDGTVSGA
smiles,measurement,setting,value
COc1c(N2C[C@@H]3CCOC[C@@]3(N)C2)c(F)cc2c(=O)c(C(=O)O)cn([C@@H]3C[C@@H]3F)c12,Activity,[1],Non-Toxic
same,MIC,[2],0.006 µg/mL
same,MIC,[3],0.05 µg/mL
same,Activity,[4],Non-Toxic
same,MIC,[5],0.025 µg/mL
same,MIC,[6],0.12 µg/mL
same,MIC,[7],0.006 µg/mL
same,inhibition at 30 µM,[8],-2.2%
same,Activity,[9],Non-Toxic
same,"activity at 0.5 h, 10 µM",[10],97.4%
same,Activity,[11],Non-Toxic
same,inhibition at 100 µM,[12],-2.5%
same,Activity,[13],Non-Toxic
same,Activity,[14],Non-Toxic
same,MIC,[15],0.05 µg/mL
same,MIC,[16],0.05 µg/mL
same,half-life,[17],3.5 h
same,MIC,[18],0.008 to 8 µg/mL
same,MIC50,"[18]; Staphylococcus aureus, 18 h",0.015 µg/mL
same,MIC90,"[18]; Staphylococcus aureus, 18 h",0.5 µg/mL
same,MIC,[19],0.78 µg/mL
same,AUC(0-t) at 8 h,[20],22900 ng·h/mL
same,MIC,[21],1.56 µg/mL
same,MIC,[22],0.006 µg/mL
same,Activity,[23],Non-Toxic
same,dose excreted at 24 h,[24],65%
same,MIC,[25],0.2 µg/mL
same,Activity,[26],Non-Toxic
same,Activity,[27],Non-Toxic
same,Activity,[28],Non-Toxic
same,MIC,[29],0.2 µg/mL
same,MIC,[30],0.2 µg/mL
same,concentration at 5 min,[31],7000 ng/mL
same,MIC,[32],0.006 µg/mL
same,AUC(0-t) at 8 h,[33],3140 ng·h/mL
same,MIC,[34],0.05 µg/mL
same,fraction unbound at 1 h,[35],1
same,MIC,[36],0.1 µg/mL
same,"remaining at 0.5 h, 1 µM",[37],100%
same,Cmax,[38],880 ng/mL
